Results reported in US8151795B2, “Method of demand valve oxygen therapy for rapid abort of cluster headache” (Linde AG, priority 2008, dated 2012).
Several values for one entry are separate records, joined by “and”; a condition that tells them apart may be missing. Equal entries are not always repeated. Where two headings read alike, the source gives them in different places.

How the values were obtained:
[1] = tested on: patients with episodic and chronic cluster headache; details: episodic and chronic disease; cited from earlier work
[2] = tested on: cerebral blood flow; details: 5% carbon dioxide; young men; cited from earlier work
[3] = tested on: pulmonary ventilation rate; details: increase of about 0.25% alveolar carbon dioxide; cited from earlier work
[4] = tested on: cluster headache patients; details: cited from earlier work
[5] = tested on: normal human subjects; details: cited from earlier work
[6] = tested on: cluster headache patients; details: cited from earlier work; for headache response: Rozen 2004; for subjects in whom oxygen is effective: standard of care continuous flow
[7] = tested on: Extracerebral Flow Index; details: cluster headache patients during headache interval, during 100% oxygen inhalation; cited from earlier work
[8] = tested on: cluster headache patients; details: cited from earlier work; remark: listed apart in the source
[9] = tested on: cerebral blood flow; details: cited from earlier work
[10] = tested on: cluster headache sufferers
From the text: It is critical that the cluster headache sufferer fully inhale and exhale as completely as possible during the first three phases of the method of the present invention, in order to insure more complete ventilation of the lungs during hyperventilation and the expelling of carbon dioxide, a vasodilative agent, as rapidly as possible. The four phases of the invented demand valve method are herein described in more detail.
Taking three to four very deep breaths of oxygen from the demand valve, exhaling and inhaling as completely as possible with each breath, starts the process of clearing the residual Nitrogen from the lungs and also starts the shift into hyperoxia, which can be defined as having more oxygen in the blood than normal.
In Phase 3, slow hyperventilation, which has a recommended respiration rate of 30 breaths per minute, the purpose is to maintain the benefits of hyperventilation, respiratory alkalosis, hypocapnia, and hyperoxia, but at a more comfortable respiration rate. […] The cluster headache sufferer should maintain this respiration rate until the cluster headache pain has clearly subsided.

[11] = tested on: cluster headache patients; details: nasal spray at doses of 5 and 10 mg; cited from earlier work
[12] = after 10 minutes of oxygen inhalation

SMILES: O=O [hyperbaric oxygen]
- prophylactic effect [1]: no significant prophylactic effect

SMILES: O=C=O [carbon dioxide]
- increase in CBF [2]: 59%
- increase in pulmonary ventilation rate [3]: 100%

SMILES: CNS(=O)(=O)Cc1ccc2[nH]cc(CCN(C)C)c2c1 [sumatriptan]
- patients in whom effective (pain free in 20 minutes) ([4]; 6 mg injected subcutaneously, double blind placebo controlled trials): about 75%
- lower effectiveness in chronic than in episodic cluster ([4]; sumatriptan injection (Rozen 2002)): 8%

SMILES: O=O [oxygen]
- toxic effects ([5]; Kafer 1971, within 3 hours of exposure): no toxic effects
- duration for which exposure is safe ([5]; Sackner 1975, atmospheric pressure): less than 6 hours
- earliest occurrence of substernal stress after start of oxygen breathing ([5]; Sackner 1975): 4 h
- time to being effective ([6]; 7 to 12 l/min continuous flow, non-rebreathing mask): ≤ 5 min
- adverse effects of oxygen for cluster headache ([6]; Ekbom 2002, Matharu 2003): no established adverse effects
- patients obtaining significant relief from cluster pain ([6]; Kudrow 1981, cessation of pain within 15 minutes for at least 7 of 10 attacks): 75%
- least benefit ([6]; Kudrow 1981, chronic patients over 49 years of age): 57%
- greatest benefit ([6]; Kudrow 1981, episodic patients under 50 years of age): 92.9%
- headache response ([6]; 7-10 l/min flow rate): no change in headache intensity
- headache response ([6]; higher flow rate (15 l/min)): complete or near-complete headache alleviation
- patients having success ([6]; chronic patients, standard of care oxygen therapy): 68.4%
- patients responding favorably ([6]; episodic patients, standard of care oxygen therapy): 78%
- subjects in whom oxygen is effective ([6]; non-rebreathing mask): ~70%
- subjects in whom oxygen is effective ([6]; non-rebreathing mask, listed as 100% oxygen): 70%
- patients noting oxygen simply delays the attack rather than aborting it ([6]; standard of care method (Matharu 2003)): up to 25%
- EFI values [7]: 7+/−2%
- average decrease of superficial temporal artery pulse amplitude [8, 12]: 30%
- patients with decreased pulse amplitude of superficial temporal artery, symptomatic side [8, 12]: 15 of the 16
- headache subsiding almost completely ([8]; after 15 minutes, 16 patients studied): 12 patients
- patients reporting at least some relief ([8]; after breathing 100% oxygen for 10 minutes): 15 of 16
- decrease in CBF ([9]; Floyd 2003, transition from air to 100% O2 at 1.0 ATA, MRI): 33%
- CBF values for temporal cortex and basal ganglia ([9]; Kawamura 1991, after 100% oxygen for five minutes, five cluster headache patients): significantly decreased below normal values
- decrease of cerebral blood flow ([9]; Kety, healthy young male volunteers): approximately 13%
- reduction of Fg (CBF in gray brain matter) ([9]; Sakai 1979, normal volunteers of both sexes): 9.4+/−5.4%
- re-attacks (attack 15 to 45 minutes after successful abort), incidence per aborts ([10]; Kip pain level high (7-8) and abort times less than 15 min): 1 out of 4
- success rate of aborting cluster headache ([10]; demand valve method, chronic sufferers over 50, attacks of Kip 8 pain level or below): 95% and > 95%
- reduction of time for complete abort vs non-rebreathing mask with 15 l/min continuous flow oxygen ([10]; demand valve method, same pain level): ~50%
- time to abort ([10]; demand valve method, the one Kip 9 cluster headache recorded): 25 min
- adverse effects or symptoms ([10]; many months of continuous use, other than dry mouth): no adverse effects or symptoms encountered
- re-attacks after extending oxygen use after abort ([10]; total of 20 minutes of continuous oxygen inhalation): largely or totally eliminated

SMILES: CN(C)CCc1c[nH]c2ccc(C[C@H]3COC(=O)N3)cc12 [Zolmitriptan]
- acute treatment of cluster headache [11]: effective and tolerable
